# Reference: patent publication US20040248919A1, “Fluorinated trienes and their use as rxr modulators” (priority 2001, published 2004)
# What was measured:
# [1] = target: T1, RXRβ (UniProt P28704); test: RXR binding, competition with tritiated retinoid; conditions: read-out: RXR Binding beta
# T1 sequence (P28704 1-520): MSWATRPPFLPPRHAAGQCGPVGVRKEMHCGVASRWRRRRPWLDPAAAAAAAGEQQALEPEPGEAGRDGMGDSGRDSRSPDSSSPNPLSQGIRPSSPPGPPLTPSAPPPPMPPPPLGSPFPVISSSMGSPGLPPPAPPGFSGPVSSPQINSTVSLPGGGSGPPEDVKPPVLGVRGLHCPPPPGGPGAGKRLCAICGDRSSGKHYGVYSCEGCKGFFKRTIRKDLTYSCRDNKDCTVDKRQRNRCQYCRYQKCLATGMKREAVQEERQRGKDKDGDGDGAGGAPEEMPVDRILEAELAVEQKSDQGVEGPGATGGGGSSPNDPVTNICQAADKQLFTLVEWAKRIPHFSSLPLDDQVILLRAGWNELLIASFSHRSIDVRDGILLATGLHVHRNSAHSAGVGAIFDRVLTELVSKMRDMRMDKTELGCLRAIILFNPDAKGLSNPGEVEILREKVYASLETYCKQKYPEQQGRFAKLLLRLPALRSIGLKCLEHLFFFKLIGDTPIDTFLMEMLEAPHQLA
# From the text: (§1) In addition to the cotransfection data, the binding of selected compounds of the present invention to the RAR and RXR receptors was also investigated according to the methodology described in M. F., Boehm, et al., “Synthesis and Structure-Activity Relation-ships of Novel Retinoid X Receptor Selective Retinoids”, 37 J. Med. Chem., 2930 (1994); M. F. Boehm, et al., “Synthesis of High Specific Activity [^3H]-9-cis Retinoic Acid and Its Application for Identifying Retinoids with Unusual Binding Properties”, 37 J. Med. Chem., 408 (1994), and E. A. Allegretto, et al., “Characterization and Comparison of Hormone-Binding and Transactivation Properties of Retinoic Acid and Retinoid X Receptors Expressed in Mammalian Cells and Yeast”, 268 J. Biol. Chem., 22625 (1993), the disclosures of which are herein incorporated by reference.
# (§2) Non-specific binding was defined as that binding remaining in the presence of 500 nM of the appropriate unlabelled compound. At the end of the incubation period, bound ligand was separated from free. The amount of bound tritiated retinoid was determined by liquid scintillation counting of an aliquot (700 μL) of the supernatant fluid or the hydroxylapatite pellet.
# (§3) After correcting for non-specific binding, IC50 values were determined. The IC50 value is defined as the concentration of competing ligand needed to reduce specific binding by 50%. The IC50 value was determined graphically from a log-logit plot of the data. The Ki values were determined by application of the Cheng-Prussof equation to the IC50 values, the labeled ligand concentration and the Kd of the labeled ligand.
# [2] = target: T2, RXRα (Homo sapiens, UniProt P19793); test: RXR binding, competition with tritiated retinoid; conditions: read-out: RXR Binding alpha
# T2 sequence (P19793 1-462): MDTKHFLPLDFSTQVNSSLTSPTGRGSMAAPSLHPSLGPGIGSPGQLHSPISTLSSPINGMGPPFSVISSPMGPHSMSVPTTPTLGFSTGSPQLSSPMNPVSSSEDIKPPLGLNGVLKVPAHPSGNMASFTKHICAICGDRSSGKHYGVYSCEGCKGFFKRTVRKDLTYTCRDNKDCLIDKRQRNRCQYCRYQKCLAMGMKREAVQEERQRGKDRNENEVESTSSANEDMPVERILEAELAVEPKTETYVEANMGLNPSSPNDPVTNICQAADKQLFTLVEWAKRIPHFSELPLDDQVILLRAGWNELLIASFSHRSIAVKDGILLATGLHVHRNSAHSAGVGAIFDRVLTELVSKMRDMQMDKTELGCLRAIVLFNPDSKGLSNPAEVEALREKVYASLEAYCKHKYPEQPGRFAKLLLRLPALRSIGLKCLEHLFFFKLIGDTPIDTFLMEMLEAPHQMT
# From the text: as §1, §2, §3
Structure (SMILES),Ki [1] [nM],Ki [2] [nM]
"CCCCOc1c(\C(C)=C/C=C/C(=C/C(=O)O)C(F)(F)F)cc(C(C)C)cc1C(C)C [Example 3, (2Z,4E,6Z)-7-(2-Butoxy-3,5-diisopropylphenyl)-3-trifluoromethyl-octa-2,4,6-trienoic acid]",203,1300
"C/C(=C/C=C(F)/C(C)=C/C(=O)O)c1cc(C(C)(C)C)cc(C(C)(C)C)c1OCC(F)F [Example 1, 7-[3,5-di-tert-butyl-2-(2,2-difluoroethoxy)-phenyl]4-fluoro-3-methyl-octa-2,4,6-trienoic acid]",12,4.8
"CCOc1c(\C(=C/C=C/C(C)=C/C(=O)O)C(F)(F)F)cc(C(C)(C)C)cc1C(C)(C)C [Example 5, (2E,4E,6E)-3-methyl-7-(2-ethoxy-3,5-di-tert-butylphenyl)-8,8,8-trifluoroocta-2,4,6-trienoic acid]",52,38
"C/C(=C/C(F)=C/C(C)=C/C(=O)O)c1cc(C(C)(C)C)cc(C(C)(C)C)c1OCC(F)F [Example 2, 7-[3,5-Di-tert-butyl-2-(2,2-difluoroethoxy)-phenyl]-5-fluoro-3-methyl-octa-2,4,6-trienoic acid]",15,8.2
"CCCCOc1c(\C(C)=C/C=C/C(=C\C(=O)O)C(F)(F)F)cc(C(C)C)cc1C(C)C [Example 4, (2E,4E,6Z)-7-(2-Butoxy-3,5-diisopropylphenyl)-3-trifluoromethyl-octa-2,4,6-trienoic acid]",1080,9110
